The target in assay [1] is T1, Mycobacterium tuberculosis α-methylacyl-CoA racemase (MCR) (Mycobacterium tuberculosis, UniProt O06543). As to the kind of experiment: MCR inhibition, colorimetric assay, dose-response curves. In kind it is biochemical. Also on record: made in house.
In assay [2] the target is T1, Mycobacterium tuberculosis α-methylacyl-CoA racemase (MCR). Also on record: made in house; method as in PMID 40447188. Conditions: cited from earlier work.
Assay [3] shares this target. Conditions: mean ± SEM, n = 3; cited from earlier work.
For assay [4] the target is unchanged. As to the kind of experiment: Inhibition mode determination / Ki (kinetic analysis, colorimetric assay). The assay is classed as biochemical. Also on record: made in house. How it is done: Enzyme and inhibitor solutions were pre-incubated for 10 min before adding these mixtures to the substrate to initiate the assay. Rates were determined using ICEKAT ([50], [51]) and analyzed with SigmaPlot 15.0 using Simple EK and enzyme kinetics macros ([53]). The best-fitting inhibition model was selected based on graphical analysis and statistical ranking of models. The Ki value was determined as the mean ± SEM from three independent repeats.

For assay [5] the target is unchanged. As to the kind of experiment: Jump-dilution experiment for reversibility of MCR inhibition. The assay is classed as biochemical. Also on record: made in house. Conditions: inhibitor at 24 × or 0.24 × IC50, 12 min. The procedure: Inhibition assays were conducted as previously described ([17]) in 50 mM NaH2PO4-NaOH, 100 mM NaCl, 1 mM EDTA (pH 7.4), and 3% (v/v) dimethylsulfoxide. Product formation was monitored at 354 nm. […] Enzyme and inhibitor were preincubated for 10 min before adding substrate to initiate the assay. Rates were determined using ICEKAT ([50], [51]), and dose-response curves ([36], [37]) were fitted using SigmaPlot 15.0 with a 4-parameter logistic model. Data are reported as pIC50 ± SEM (n = 3).

Where [6] appears, read: Log10 IC50, repeat 1, 4-parameter logistic fit coefficient.
The mark [7] stands for this setting: Log10 IC50, repeat 2, 4-parameter logistic fit coefficient.
Setting [8] is: Log10 IC50, repeat 3, 4-parameter logistic fit coefficient.
Where [9] appears, read: pIC50, mean ± SEM, n = 3, MCR 3.12 nM, substrate 96 μM, 10 min preincubation, pH 7.4.
Setting [10] is: repeat 1, 4-parameter logistic fit coefficient.
Where [11] appears, read: repeat 2, 4-parameter logistic fit coefficient.
[12] abbreviates: repeat 3, 4-parameter logistic fit coefficient.

Consider 15 compounds from publication PMC12682127, “Structural basis for inhibition of Mycobacterium tuberculosis α-methylacyl-CoA racemase by 2-arylthiopropanoyl-CoA inhibitor analogs” (The Journal of Biological Chemistry, 2025).

Like-named read-outs stand apart in the source and are kept apart here.

The term IC50 denotes the concentration that gives 50% inhibition. Low readings indicate greater potency in that assay, high ones weaker potency in that assay. Usually pIC50 stands for −log10 of the IC50, conventionally taken in molar units. As a reminder, the Ki is a measure of affinity in units of concentration, obtained from inhibition or displacement.

T1 sequence (O06543 whole entry): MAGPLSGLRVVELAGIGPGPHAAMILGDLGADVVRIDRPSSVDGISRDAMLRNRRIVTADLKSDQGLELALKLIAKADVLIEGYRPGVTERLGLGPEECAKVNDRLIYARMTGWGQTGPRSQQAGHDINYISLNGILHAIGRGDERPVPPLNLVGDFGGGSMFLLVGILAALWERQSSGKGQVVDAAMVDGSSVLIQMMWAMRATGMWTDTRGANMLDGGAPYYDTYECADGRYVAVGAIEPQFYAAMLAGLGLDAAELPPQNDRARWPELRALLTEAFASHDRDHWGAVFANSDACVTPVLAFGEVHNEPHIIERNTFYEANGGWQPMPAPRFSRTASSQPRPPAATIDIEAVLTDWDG

As for `CC(Sc1cccc(OCCc2ccccc2)c1)C(=O)SCCNC(=O)CCNC(=O)C(O)C(C)(C)COP(=O)(O)OP(=O)(O)OCC1OC(n2cnc3c(N)ncnc32)C(O)C1OP(=O)(O)O` (racemic) [Compound 4, (±)-2-(3-(2-Phenylethoxy)phenylthio)propanoyl-CoA], the IC50 is 791 nM in assay [1] (setting [6]), 891 nM in assay [1] (setting [7]), 839 nM in assay [1] (setting [8]) and 832 nM in assay [1] (setting [9]). In addition, the Hillslope is -0.6564 in assay [1] (setting [10]), -0.8291 in assay [1] (setting [11]) and -0.8501 in assay [1] (setting [12]).

In the case of `CC(C)COc1cccc(SC(C)C(=O)SCCNC(=O)CCNC(=O)C(O)C(C)(C)COP(=O)(O)OP(=O)(O)OCC2OC(n3cnc4c(N)ncnc43)C(O)C2OP(=O)(O)O)c1` (racemic) [Compound 7, (±)-2-(3-(2-Methylpropoxy)phenylthio)propanoyl-CoA], the IC50 in assay [1] (setting [6]) is 4030 nM; in assay [1] (setting [7]), 3320 nM; in assay [1] (setting [8]), 4760 nM; in assay [1] (setting [9]) it was 3980 nM. In addition, the Hillslope in assay [1] (setting [10]) is -0.7207; in assay [1] (setting [11]), -0.6683; in assay [1] (setting [12]) it was -0.7565.

As for `CC(C)COc1ccc(SC(C)C(=O)SCCNC(=O)CCNC(=O)C(O)C(C)(C)COP(=O)(O)OP(=O)(O)OCC2OC(n3cnc4c(N)ncnc43)C(O)C2OP(=O)(O)O)cc1` (racemic) [Compound 13, (±)-2-(4-(2-Methylpropoxy)phenylthio)propanoyl-CoA], the IC50 in assay [1] (setting [6]) was 2070 nM; in assay [1] (setting [7]) it was 1930 nM; in assay [1] (setting [8]), 1640 nM; in assay [1] (setting [9]), 1860 nM. Also, the Hillslope is reported as -0.7177 in assay [1] (setting [10]), -0.8209 in assay [1] (setting [11]) and -0.7335 in assay [1] (setting [12]).

For the compound `CCCCCOc1ccc(SC(C)C(=O)SCCNC(=O)CCNC(=O)C(O)C(C)(C)COP(=O)(O)OP(=O)(O)OCC2OC(n3cnc4c(N)ncnc43)C(O)C2OP(=O)(O)O)cc1` (racemic) [Compound 14, (±)-2-((4-(pentyloxy)phenyl)thio)propanoyl-CoA], the IC50 in assay [1] (setting [6]) was 913 nM; in assay [1] (setting [7]) it was 690 nM; in assay [1] (setting [8]) it was 846 nM; in assay [1] (setting [9]), 813 nM. Moreover, the Hillslope in assay [1] (setting [10]) is -0.6352; in assay [1] (setting [11]) it was -0.8783; in assay [1] (setting [12]), -0.7880.

Take `CC(Sc1ccc(OCCc2cccc(C(F)(F)F)c2)cc1)C(=O)SCCNC(=O)CCNC(=O)C(O)C(C)(C)COP(=O)(O)OP(=O)(O)OCC1OC(n2cnc3c(N)ncnc32)C(O)C1OP(=O)(O)O` (racemic) [Compound 12, (±)-2-(4-(2-(3-Trifluoromethylphenethoxy)phenylthio)propanoyl-CoA]: the IC50 is 828 nM in assay [1] (setting [6]), 706 nM in assay [1] (setting [7]), 1040 nM in assay [1] (setting [8]) and 851 nM in assay [1] (setting [9]). In addition, the Hillslope in assay [1] (setting [10]) is reported as -1.1570; in assay [1] (setting [11]), -1.0035; in assay [1] (setting [12]) it was -1.3522.

In the case of `CC(Sc1ccc(OCCc2ccccc2)cc1)C(=O)SCCNC(=O)CCNC(=O)C(O)C(C)(C)COP(=O)(O)OP(=O)(O)OCC1OC(n2cnc3c(N)ncnc32)C(O)C1OP(=O)(O)O` (racemic) [Compound 10, (±)-2-(4-(2-Phenylethoxy)phenylthio)propanoyl-CoA], the IC50 in assay [1] (setting [6]) is 2140 nM; in assay [1] (setting [7]) it was 3020 nM; in assay [1] (setting [8]), 2490 nM; in assay [1] (setting [9]) it was 2510 nM. Further, the figures for the Hillslope in assay [1] (setting [10]), in assay [1] (setting [11]) and in assay [1] (setting [12]) were -0.9669, -1.3506 and -1.1651, respectively.

For the compound `COc1cccc(CCOc2ccc(SC(C)C(=O)SCCNC(=O)CCNC(=O)C(O)C(C)(C)COP(=O)(O)OP(=O)(O)OCC3OC(n4cnc5c(N)ncnc54)C(O)C3OP(=O)(O)O)cc2)c1` (racemic) [Compound 11, (±)-2-(4-(2-(3-Methoxyphenyl)ethoxy)phenylthio)propanoyl-CoA], the IC50 in assay [1] (setting [6]) is 669 nM; in assay [1] (setting [7]) it was 1310 nM; in assay [1] (setting [8]), 598 nM; in assay [1] (setting [9]), 813 nM. Moreover, the figures for the Hillslope in assay [1] (setting [10]), in assay [1] (setting [11]) and in assay [1] (setting [12]) were -0.8553, -1.1060 and -0.6966, respectively.

For the compound `CC(Sc1cccc(OCc2ccccc2)c1)C(=O)SCCNC(=O)CCNC(=O)C(O)C(C)(C)COP(=O)(O)OP(=O)(O)OCC1OC(n2cnc3c(N)ncnc32)C(O)C1OP(=O)(O)O` (racemic) [Compound 2, (±)-2-(3-Benzyloxyphenylthio)propanoyl-CoA], the half-inhibitory concentration (IC50) in assay [1] (setting [6]) is 1630 nM; in assay [1] (setting [7]), 619 nM; in assay [1] (setting [8]), 487 nM; in assay [1] (setting [9]), 794 nM. Moreover, the values for the Hillslope in assay [1] (setting [10]), in assay [1] (setting [11]) and in assay [1] (setting [12]) were -0.7954, -0.7479 and -0.8395, respectively.

Consider `CC(Sc1ccc(OCc2ccccc2)cc1)C(=O)SCCNC(=O)CCNC(=O)C(O)C(C)(C)COP(=O)(O)OP(=O)(O)OCC1OC(n2cnc3c(N)ncnc32)C(O)C1OP(=O)(O)O` (racemic) [Compound 8, (±)-2-(4-Benzyloxyphenylthio)propanoyl-CoA], for which the IC50 in assay [1] (setting [6]) was 2620 nM; in assay [1] (setting [7]), 2610 nM; in assay [1] (setting [8]), 2800 nM; in assay [1] (setting [9]), 2690 nM. The Hillslope in assay [1] (setting [10]) is -0.8760; in assay [1] (setting [11]), -0.9668; in assay [1] (setting [12]) it was -0.9845.

Consider `CC(C(=O)SCCNC(=O)CCNC(=O)C(O)C(C)(C)COP(=O)(O)OP(=O)(O)OCC1OC(n2cnc3c(N)ncnc32)C(O)C1OP(=O)(O)O)c1cccc(Oc2ccccc2)c1` (racemic) [Compound 1, (±)-Fenoprofenoyl-CoA], for which the pIC50 in assay [2] is on record as 5.43 ± 0.07.

As for `CC(C)Cc1ccc(C(C)C(=O)SCCNC(=O)CCNC(=O)C(O)C(C)(C)COP(=O)(O)OP(=O)(O)OCC2OC(n3cnc4c(N)ncnc43)C(O)C2OP(=O)(O)O)cc1` (centres unmarked) [ibuprofenoyl-CoA], the Ki in assay [3] was 3040 ± 340 nM. Besides, the pIC50 in assay [2] was 5.65 ± 0.05.

On to `COc1cccc(CCOc2cccc(SC(C)C(=O)SCCNC(=O)CCNC(=O)C(O)C(C)(C)COP(=O)(O)OP(=O)(O)OCC3OC(n4cnc5c(N)ncnc54)C(O)C3OP(=O)(O)O)c2)c1` (racemic) [Compound 5, (±)-2-(3-(2-(3-Methoxyphenyl)ethoxy)phenylthio)propanoyl-CoA], for which the IC50 in assay [1] (setting [6]) is 1470 nM; in assay [1] (setting [7]), 1260 nM; in assay [1] (setting [8]), 1490 nM; in assay [1] (setting [9]), 1410 nM. The Hillslope is recorded as -1.0666 in assay [1] (setting [10]), -1.0398 in assay [1] (setting [11]) and -0.8398 in assay [1] (setting [12]).

On to `COc1cccc(COc2ccc(SC(C)C(=O)SCCNC(=O)CCNC(=O)C(O)C(C)(C)COP(=O)(O)OP(=O)(O)OCC3OC(n4cnc5c(N)ncnc54)C(O)C3OP(=O)(O)O)cc2)c1` (racemic) [Compound 9, (±)-2-(4-(3-Methoxybenzyloxy)phenylthio)propanoyl-CoA], for which the IC50 was 2670 nM in assay [1] (setting [6]), 2250 nM in assay [1] (setting [7]), 2840 nM in assay [1] (setting [8]) and 2570 nM in assay [1] (setting [9]). In addition, the Hillslope in assay [1] (setting [10]) is recorded as -1.2477; in assay [1] (setting [11]), -0.8652; in assay [1] (setting [12]) it was -1.1180.

For the compound `COc1cccc(COc2cccc(SC(C)C(=O)SCCNC(=O)CCNC(=O)C(O)C(C)(C)COP(=O)(O)OP(=O)(O)OCC3OC(n4cnc5c(N)ncnc54)C(O)C3OP(=O)(O)O)c2)c1` (racemic) [Compound 3, (±)-2-(3-(3-Methoxybenzyloxy)phenylthio)propanoyl-CoA], the IC50 in assay [1] (setting [6]) is 401 nM; in assay [1] (setting [7]), 425 nM; in assay [1] (setting [8]), 228 nM; in assay [1] (setting [9]), 339 nM. Further, the Hillslope in assay [1] (setting [10]) was -0.6534; in assay [1] (setting [11]), -0.5594; in assay [1] (setting [12]), -0.7275.

Consider `CC(Sc1cccc(OCCc2cccc(C(F)(F)F)c2)c1)C(=O)SCCNC(=O)CCNC(=O)C(O)C(C)(C)COP(=O)(O)OP(=O)(O)OCC1OC(n2cnc3c(N)ncnc32)C(O)C1OP(=O)(O)O` (racemic) [Compound 6, (±)-2-(3-(2-(3-Trifluoromethylphenyl)ethoxy)phenylthio)propanoyl-CoA], for which the “Potency relative to ibuprofenoyl-CoA, from pIC50” value in assay [1] was “at least 13.5 times”. Also, the IC50 was 134 nM in assay [1] (setting [6]), 109 nM in assay [1] (setting [7]), 316 nM in assay [1] (setting [8]) and 166 nM in assay [1] (setting [9]). Moreover, the figures for the Hillslope in assay [1] (setting [10]), in assay [1] (setting [11]) and in assay [1] (setting [12]) were -0.6535, -0.6960 and -1.0454, respectively. Also, the Ki was found to be 238 ± 39 nM in assay [4] (mean ± SEM, n = 3, competitive model); 190 nM in assay [4] (repeat 1); 315 nM in assay [4] (repeat 2); 210 nM in assay [4] (repeat 3). Besides, the Mode of inhibition result in assay [4] (Lineweaver-Burk plot / kinetic analysis) was “competitive inhibition”. The Reversibility of inhibition entry in assay [5] is given as “reversible inhibition”.
